# What was measured:
# [1] = Corrosion weight loss test on steel coupons in HCl
# Experimental: Experiments were carried out with coupons of the following steels: • 22Cr125 also designated 2205, a duplex alloy steel which is an iron-chromium-nickel-molybdenum alloy, used (among other things) to fabricate casing. • HS80™ (TradeMark of TENARIS), a low carbon steel used to fabricate coiled tubing. • N80, a medium carbon steel used to fabricate borehole casing. • 13Cr80, an alloy steel containing 13 wt % chromium without nickel, also used to fabricate borehole casing.
# (1) Metal Type: Duplex Stainless Steel 22Cr125 Casing (2205 b6); 4 mol/L HCl, T=80° C., 3 Hours Exposure
# [2] = Solubility in hydrochloric acid solutions; type: physicochemical; details: compared with NMTHQ
# Source text: As a result, a surfactant is required to solubilise NTHQ for corrosion testing purposes. The surfactant used in this example is P2393, a polyoxyethylene tridecyl ether, C13H27(OCH2CH2)nOH, where n=10.
# As a result, a surfactant is required to solubilise NTHQ for corrosion testing purposes. As for example 5 (NTHQ), the surfactant used to solubilise NCOTHQ is P2393, a polyoxyethylene tridecyl ether, C13H27(OCH2CH2)nOH, where n=10.
# [3] = Corrosion weight loss test on steel coupons in HCl; design: Pitting Index: scale not given here
# Source text: (§1) Such “acceptable” levels of corrosion are application-specific.
# [4] = Corrosion weight loss test on steel coupons in HCl; design: Pitting Index: scale not given here; remark: listed apart in the source
# Source text: as §1
# [5] = Corrosion weight loss test on steel coupons in HCl; design: Pitting Index: scale not given here; remark: listed apart in the source
# Source text: as §1
# [6] = Rotating Cylinder Electrode electrochemistry, charge transfer resistance; details: 5 mM inhibitor, 10 mM KI, 4 mol/L HCl, 2000 rpm, 80° C.; FIG. 6
# Source text: (§2) EIS can be used to monitor the corrosion rate of a system. The parameter of interest is the charge transfer resistance, Rct, which can be thought of the ‘resistance’ to corrosion. A metal test piece is used as the working electrode in a three-electrode electrochemical cell with the corrosive solution as electrolyte. Impedance data is obtained by applying a small alternating voltage to the working electrode and measuring the resulting current to obtain a value of impedance. This is done at a range of frequencies. Then, in order to extract the parameter of interest, the metal/inhibitor/electrolyte interfaces are modelled as an electrical equivalent circuit and the theoretical impedance is fitted to the data. […] Charge transfer resistance, Rct, is measured. Charge transfer resistance, Rct is a measure for corrosion resistance, and is inversely proportional to corrosion rate (CR). Therefore 1/Rct is proportional to CR.
# [7] = as above; details: 5 mM inhibitor, 10 mM KI, 4 mol/L HCl, 2000 rpm, 80° C.; FIG. 6; remark: listed apart in the source
# Source text: as §2
# [8] = 0.1542 wt % (5.13 mmol/L), KI 0, 2205 (b9), 5 mL 2-butoxyethanol in 200 mL 4 mol/L HCl
compound,measurement,setting,value
"NCCc1cn(Cc2cccc3ccccc23)c2ccccc12 [NMHIE, 2-(1-(Naphthalene-1ylmethyl)-1H-indol-3-yl)ethan-1-amine]",Pitting Index,"[1]; 0.1500 wt % (4.99 mmol/L) + KI 20 mmol/L, 2205 (b9), 0.5 wt % P2393 in 4 mol/L HCl",0
same,Pitting Index,"[1]; 0.1542 wt % (5.13 mmol/L), KI 0, 2205 (b9), 0.5 wt % P2393 in 4 mol/L HCl",5
same,Pitting Index,[1]; [8],3
"c1ccc2c(CNCCc3c[nH]c4ccccc34)cccc2c1 [HINNME, 2-(1H-indol-3-yl)-N-(naphthalene-1-ylmethyl)ethan-1-amine]",Pitting Index,"[1]; 0.1500 wt % (4.99 mmol/L) + KI 20 mmol/L, 2205 (b9), 5 mL 2-butoxyethanol in 200 mL 4 mol/L HCl",0
same,Pitting Index,[1]; [8],2
"O=C(c1cccc2ccccc12)N1CCCc2ccccc21 [NCOTHQ, (3,4-dihydroquinolin-1(2H)-yl)(naphthalene-1-yl)methanone]",solubility in hydrochloric acid solutions (in words),[2],significantly less soluble than NMTHQ
c1ccc2c(c1)CCN(Cc1ccc3ccccc3c1)C2 [NMTHisoQ],Pitting Index,"[1]; 0.1366 wt % (5.00 mmol/L) + KI 20 mmol/L, 2205 (b5), 4 mol/L HCl, 80° C., 3 hours",0
same,Pitting Index,"[1]; 0.1367 wt % (5.00 mmol/L), KI 0, 2205 (b5), 4 mol/L HCl, 80° C., 3 hours",1
"c1ccc2c(c1)CCCN2c1cccc2ccccc12 [NTHQ, 1-(naphthalen-1-yl)-1,2,3,4-tetrahydroquinoline]",Pitting Index,"[3]; 11.00 mmol/L + additive P2393, 0.5 wt %",1
same,solubility in hydrochloric acid solutions (in words),[2],significantly less soluble than NMTHQ
same,Pitting Index,"[1]; 11.00 mmol/L + additive P2393, 0.5 wt %, 2205 (b5)",3
"c1ccc2c(CN3CCOCC3)cccc2c1 [NMM, 4-(naphthalene-1-ylmethyl)morpholine]",Pitting Index,"[1]; 0.1397 wt % (5.04 mmol/L) + KI 20.12 mmol/L, 2205 (b9)",2
same,Pitting Index,"[1]; 0.1402 wt % (5.05 mmol/L), KI 0, 2205 (b9)",5
"c1ccc2c(CN3CCCC4CCCCC43)cccc2c1 (stereo not drawn) [NMDHQ, 1-(naphthalen-1-ylmethyl)decahydroquinoline]",Pitting Index,"[3]; 0.3061 wt % (10.95 mmol/L), KI 0",2
same,Pitting Index,"[4]; 0.3094 wt % (11.07 mmol/L), KI 0, 13Cr",2
same,Pitting Index,"[1]; 0.1414 wt % (5.0 mmol/L) + KI 10 mmol/L, 2205 (b8)",0
same,Pitting Index,"[1]; 0.1414 wt % (5.0 mmol/L) + KI 20 mmol/L, 2205 (b8)",0
same,Pitting Index,"[1]; 0.3088 wt % (11.05 mmol/L), KI 0, 2205 (b8)",1
same,Pitting Index,"[5]; 0.3068 wt % (10.98 mmol/L), KI 0",0
"naphthylmethylquinolinium chloride [NMQCl, reference compound]",Pitting Index,"[3]; 0.0015 wt % (0.05 mmol/L), 4 mol/L HCl, 80° C., 3 hours",5
same,Pitting Index,"[3]; 0.06225 wt % (2.04 mmol/L), 4 mol/L HCl, 80° C., 3 hours",0
same,Pitting Index,"[3]; 0.1531 wt % (5.01 mmol/L), 4 mol/L HCl, 80° C., 3 hours",0
same,Pitting Index,"[3]; 0.3366 wt % (11.01 mmol/L), 4 mol/L HCl, 80° C., 3 hours",0
same,Pitting Index,"[4]; 0.1545 wt % (5.05 mmol/L), 4 mol/L HCl, 80° C., 3 hours",5
same,Pitting Index,"[4]; 0.3466 wt % (11.33 mmol/L), 4 mol/L HCl, 80° C., 3 hours",0
same,"1/Rct (proportional to corrosion rate), NMHQ compared with NMQCl",[6],very similar results
same,"1/Rct (proportional to corrosion rate), NMHQ compared with NMQCl",[7],very similar results
same,Pitting Index,"[1]; 0.123 wt % (4.03 mmol/L), 2205 b6, 4 mol/L HCl, 80° C., 3 hours",4
same,Pitting Index,"[1]; 0.322 wt % (10.54 mmol/L), 2205 b6, 4 mol/L HCl, 80° C., 3 hours",0
same,Pitting Index,"[1]; 0.612 wt % (20.00 mmol/L), 2205 b6, 4 mol/L HCl, 80° C., 3 hours",0
same,Pitting Index,"[5]; 0.1534 wt % (5.02 mmol/L), 4 mol/L HCl, 80° C., 3 hours",3
same,Pitting Index,"[5]; 0.3386 wt % (11.07 mmol/L), 4 mol/L HCl, 80° C., 3 hours",0
same,Pitting Index,"[5]; 0.3394 wt % (11.10 mmol/L), 4 mol/L HCl, 80° C., 3 hours",0
c1ccc2c(CN3CCC[C@H]4CCCC[C@@H]43)cccc2c1 [4aR-8aS-NMDHQ],Pitting Index,"[3]; 0.3087 wt % (11.05 mmol/L), KI 0",2
same,Pitting Index,"[4]; 0.3076 wt % (11.01 mmol/L), KI 0, 13Cr",2
same,Pitting Index,"[1]; 0.3095 wt % (11.08 mmol/L), KI 0, 2205 (b8)",1
same,Pitting Index,"[5]; 0.3098 wt % (11.09 mmol/L), KI 0",1
"[I-].[K+] [KI, potassium iodide, reference compound]",Pitting Index,"[3]; KI 10 mmol/L alone, no NMTHQ",2
same,Pitting Index,"[4]; KI 10 mmol/L alone, no NMTHQ",5
same,Pitting Index,"[1]; KI 10 mmol/L alone, no organic inhibitor, 2205 (b5)",5
same,Pitting Index,"[1]; KI 20 mmol/L alone, no organic inhibitor, 2205 (b5), 4 mol/L HCl, 80° C., 3 hours",5
same,Pitting Index,"[5]; KI 10 mmol/L alone, no NMTHQ",5
"c1ccc2c(c1)CCN2Cc1cccc2ccccc12 [NMI, 1-(naphthalen-1-ylmethyl)indoline]",Pitting Index,"[1]; 0.1304 wt % (5.03 mmol/L), KI 0, 2205 (b9)",3
same,Pitting Index,"[1]; 0.1308 wt % (5.04 mmol/L) + KI 20 mmol/L, 2205 (b9)",0
"c1ccc2ncccc2c1 [Quinoline, reference compound]",Pitting Index,"[1]; 0.1421 wt % (11.00 mmol/L), 2205 b6, 4 mol/L HCl, 80° C., 3 hours",6

# — patent US10982337B2, “Corrosion inhibition” (SCHLUMBERGER TECHNOLOGY CORPORATION, priority 2015, dated 2021)
